Results taken from PubChem BioAssay (NCI).
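All cell lines were grown in 96-well plates and treated with compound for 48 hours. TGI: concentration producing complete growth inhibition.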

How the values were obtained:
Test in all cases: NCI-60 cell line screen, 48 h
MCF7 breast = tested on: MCF7 breast
NCI-H522 lung = tested on: NCI-H522 lung
HL-60(TB) leukemia = tested on: HL-60(TB) leukemia
SF-268 CNS = tested on: SF-268 CNS
SNB-19 CNS = tested on: SNB-19 CNS
EKVX NSCLC = tested on: EKVX NSCLC
COLO 205 colon = tested on: COLO 205 colon
IGROV1 ovarian = tested on: IGROV1 ovarian
LOX IMVI melanoma = tested on: LOX IMVI melanoma
MOLT-4 leukemia = tested on: MOLT-4 leukemia
CCRF-CEM leukemia = tested on: CCRF-CEM leukemia
SNB-75 CNS = tested on: SNB-75 CNS
MDA-N = tested on: MDA-N
HOP-92 NSCLC = tested on: HOP-92 NSCLC
NCI-H23 lung = tested on: NCI-H23 lung
MALME-3M melanoma = tested on: MALME-3M melanoma
CAKI-1 renal = tested on: CAKI-1 renal
U251 CNS = tested on: U251 CNS
A498 renal = tested on: A498 renal
RXF 393 renal = tested on: RXF 393 renal
MDA-MB-231 breast = tested on: MDA-MB-231 breast
MDA-MB-435 = tested on: MDA-MB-435
SK-MEL-2 melanoma = tested on: SK-MEL-2 melanoma
PC-3 prostate = tested on: PC-3 prostate
SK-MEL-28 melanoma = tested on: SK-MEL-28 melanoma
UACC-62 melanoma = tested on: UACC-62 melanoma
NCI-H226 lung = tested on: NCI-H226 lung
NCI/ADR-RES ovarian = tested on: NCI/ADR-RES ovarian
HCC-2998 colon = tested on: HCC-2998 colon
A549 NSCLC = tested on: A549 NSCLC
HOP-62 NSCLC = tested on: HOP-62 NSCLC
SK-MEL-5 melanoma = tested on: SK-MEL-5 melanoma
SW-620 colon = tested on: SW-620 colon
HCT-116 colon = tested on: HCT-116 colon
UO-31 renal = tested on: UO-31 renal
OVCAR-8 ovarian = tested on: OVCAR-8 ovarian
RPMI-8226 leukemia = tested on: RPMI-8226 leukemia
HCT-15 colon = tested on: HCT-15 colon
KM12 colon = tested on: KM12 colon
HS 578T breast = tested on: HS 578T breast
T-47D breast = tested on: T-47D breast
SK-OV-3 ovarian = tested on: SK-OV-3 ovarian
BT-549 breast = tested on: BT-549 breast
OVCAR-5 ovarian = tested on: OVCAR-5 ovarian
TK-10 renal = tested on: TK-10 renal
OVCAR-3 ovarian = tested on: OVCAR-3 ovarian
UACC-257 melanoma = tested on: UACC-257 melanoma
ACHN renal = tested on: ACHN renal
DU-145 prostate = tested on: DU-145 prostate
M14 melanoma = tested on: M14 melanoma
HT29 colon = tested on: HT29 colon
OVCAR-4 ovarian = tested on: OVCAR-4 ovarian
786-0 renal = tested on: 786-0 renal
SR leukemia = tested on: SR leukemia
SF-539 CNS = tested on: SF-539 CNS
K-562 leukemia = tested on: K-562 leukemia
SN12C renal = tested on: SN12C renal
SF-295 CNS = tested on: SF-295 CNS
NCI-H460 lung = tested on: NCI-H460 lung
HOP-18 NSCLC = tested on: HOP-18 NSCLC
KM20L2 colon = tested on: KM20L2 colon
SNB-78 CNS = tested on: SNB-78 CNS
DMS 114 small cell lung = tested on: DMS 114 small cell lung
M19-MEL melanoma = tested on: M19-MEL melanoma
DMS 273 small cell lung = tested on: DMS 273 small cell lung
DLD-1 colon = tested on: DLD-1 colon

SMILES: CCOP(=O)(O)C(Nc1ccc(N=Nc2ccccc2)cc1)c1cccc(C(Nc2ccc(N=Nc3ccccc3)cc2)P(=O)(O)OCC)c1 (stereo not drawn)
- TGI (MCF7 breast): > 100 µM
- TGI (NCI-H522 lung): > 100 µM
- TGI (HL-60(TB) leukemia): 69.7 µM
- TGI (SF-268 CNS): > 100 µM
- TGI (SNB-19 CNS): > 100 µM
- TGI (EKVX NSCLC): > 100 µM
- TGI (COLO 205 colon): 43.2 µM
- TGI (IGROV1 ovarian): > 100 µM
- TGI (LOX IMVI melanoma): 77.4 µM
- TGI (MOLT-4 leukemia): 60.5 µM
- TGI (CCRF-CEM leukemia): 96.7 µM
- TGI (SNB-75 CNS): > 100 µM
- TGI (MDA-N): > 100 µM
- TGI (HOP-92 NSCLC): > 100 µM
- TGI (NCI-H23 lung): > 100 µM
- TGI (MALME-3M melanoma): > 100 µM
- TGI (CAKI-1 renal): > 100 µM
- TGI (U251 CNS): > 100 µM
- TGI (A498 renal): 88.6 µM
- TGI (RXF 393 renal): > 100 µM
- TGI (MDA-MB-231 breast): > 100 µM
- TGI (MDA-MB-435): > 100 µM
- TGI (SK-MEL-2 melanoma): > 100 µM
- TGI (PC-3 prostate): 67.5 µM
- TGI (SK-MEL-28 melanoma): 93.7 µM
- TGI (UACC-62 melanoma): 78.1 µM
- TGI (NCI-H226 lung): > 100 µM
- TGI (NCI/ADR-RES ovarian): > 100 µM
- TGI (HCC-2998 colon): 71.3 µM
- TGI (A549 NSCLC): > 100 µM
- TGI (HOP-62 NSCLC): 58.5 µM
- TGI (SK-MEL-5 melanoma): > 100 µM
- TGI (SW-620 colon): > 100 µM
- TGI (HCT-116 colon): > 100 µM
- TGI (UO-31 renal): > 100 µM
- TGI (OVCAR-8 ovarian): > 100 µM
- TGI (RPMI-8226 leukemia): 86.5 µM
- TGI (HCT-15 colon): > 100 µM
- TGI (KM12 colon): > 100 µM
- TGI (HS 578T breast): > 100 µM
- TGI (T-47D breast): > 100 µM
- TGI (SK-OV-3 ovarian): > 100 µM
- TGI (BT-549 breast): > 100 µM
- TGI (OVCAR-5 ovarian): > 100 µM
- TGI (TK-10 renal): > 100 µM
- TGI (OVCAR-3 ovarian): > 100 µM
- TGI (UACC-257 melanoma): > 100 µM
- TGI (ACHN renal): > 100 µM
- TGI (DU-145 prostate): > 100 µM
- TGI (M14 melanoma): > 100 µM
- TGI (HT29 colon): 40.9 µM
- TGI (OVCAR-4 ovarian): > 100 µM
- TGI (786-0 renal): > 100 µM
- TGI (SR leukemia): > 100 µM
- TGI (SF-539 CNS): > 100 µM
- TGI (K-562 leukemia): 40 µM
- TGI (SN12C renal): > 100 µM
- TGI (SF-295 CNS): 58.1 µM
- TGI (NCI-H460 lung): > 100 µM

SMILES: O=C1NC(N/N=C\c2ccccc2)=N/C1=C/c1ccccc1
- TGI (MCF7 breast): > 100 µM
- TGI (NCI-H522 lung): 87 µM
- TGI (HL-60(TB) leukemia): > 100 µM
- TGI (SF-268 CNS): > 100 µM
- TGI (SNB-19 CNS): 73.6 µM
- TGI (EKVX NSCLC): 74.5 µM
- TGI (COLO 205 colon): > 100 µM
- TGI (IGROV1 ovarian): > 100 µM
- TGI (LOX IMVI melanoma): > 100 µM
- TGI (MOLT-4 leukemia): 50 µM
- TGI (CCRF-CEM leukemia): > 100 µM
- TGI (SNB-75 CNS): 63.2 µM
- TGI (MDA-N): > 100 µM
- TGI (HOP-92 NSCLC): 66.6 µM
- TGI (NCI-H23 lung): 58.7 µM
- TGI (MALME-3M melanoma): > 100 µM
- TGI (CAKI-1 renal): 87 µM
- TGI (U251 CNS): > 100 µM
- TGI (A498 renal): > 100 µM
- TGI (RXF 393 renal): 73.1 µM
- TGI (MDA-MB-231 breast): > 100 µM
- TGI (MDA-MB-435): > 100 µM
- TGI (SK-MEL-2 melanoma): > 100 µM
- TGI (PC-3 prostate): 98.4 µM
- TGI (SK-MEL-28 melanoma): > 100 µM
- TGI (NCI-H226 lung): 50.2 µM
- TGI (NCI/ADR-RES ovarian): 85.9 µM
- TGI (HCC-2998 colon): 40 µM
- TGI (A549 NSCLC): > 100 µM
- TGI (HOP-62 NSCLC): 48.2 µM
- TGI (SK-MEL-5 melanoma): > 100 µM
- TGI (SW-620 colon): > 100 µM
- TGI (HCT-116 colon): > 100 µM
- TGI (UO-31 renal): > 100 µM
- TGI (OVCAR-8 ovarian): > 100 µM
- TGI (RPMI-8226 leukemia): > 100 µM
- TGI (HCT-15 colon): > 100 µM
- TGI (KM12 colon): > 100 µM
- TGI (HS 578T breast): 80.7 µM
- TGI (T-47D breast): > 100 µM
- TGI (SK-OV-3 ovarian): > 100 µM
- TGI (BT-549 breast): 71.2 µM
- TGI (OVCAR-5 ovarian): 44.5 µM
- TGI (TK-10 renal): > 100 µM
- TGI (OVCAR-3 ovarian): 94.9 µM
- TGI (UACC-257 melanoma): > 100 µM
- TGI (ACHN renal): 34.5 µM
- TGI (DU-145 prostate): 78.8 µM
- TGI (M14 melanoma): > 100 µM
- TGI (HT29 colon): > 100 µM
- TGI (OVCAR-4 ovarian): 55.9 µM
- TGI (786-0 renal): > 100 µM
- TGI (SR leukemia): 53.9 µM
- TGI (SF-539 CNS): 43.5 µM
- TGI (K-562 leukemia): > 100 µM
- TGI (SN12C renal): > 100 µM
- TGI (SF-295 CNS): > 100 µM
- TGI (NCI-H460 lung): > 100 µM

SMILES: CN(C)CCN1CCc2c([nH]c3ccccc23)C1c1cccnc1 (stereo not drawn)
- TGI (NCI-H522 lung): > 100 µM
- TGI (HL-60(TB) leukemia): > 100 µM
- TGI (SF-268 CNS): > 100 µM
- TGI (SNB-19 CNS): > 100 µM
- TGI (EKVX NSCLC): > 100 µM
- TGI (IGROV1 ovarian): > 100 µM
- TGI (HOP-18 NSCLC): > 100 µM
- TGI (MOLT-4 leukemia): > 100 µM
- TGI (CCRF-CEM leukemia): > 100 µM
- TGI (SNB-75 CNS): > 100 µM
- TGI (KM20L2 colon): > 100 µM
- TGI (HOP-92 NSCLC): > 100 µM
- TGI (SNB-78 CNS): > 100 µM
- TGI (NCI-H23 lung): > 100 µM
- TGI (CAKI-1 renal): > 100 µM
- TGI (U251 CNS): > 100 µM
- TGI (A498 renal): > 100 µM
- TGI (RXF 393 renal): > 100 µM
- TGI (SK-MEL-28 melanoma): > 100 µM
- TGI (DMS 114 small cell lung): > 100 µM
- TGI (UACC-62 melanoma): > 100 µM
- TGI (HCC-2998 colon): > 100 µM
- TGI (A549 NSCLC): > 100 µM
- TGI (HOP-62 NSCLC): > 100 µM
- TGI (SK-MEL-5 melanoma): > 100 µM
- TGI (SW-620 colon): > 100 µM
- TGI (HCT-116 colon): > 100 µM
- TGI (UO-31 renal): > 100 µM
- TGI (OVCAR-8 ovarian): > 100 µM
- TGI (RPMI-8226 leukemia): > 100 µM
- TGI (HCT-15 colon): > 100 µM
- TGI (KM12 colon): > 100 µM
- TGI (SK-OV-3 ovarian): > 100 µM
- TGI (OVCAR-5 ovarian): > 100 µM
- TGI (TK-10 renal): > 100 µM
- TGI (OVCAR-3 ovarian): > 100 µM
- TGI (M19-MEL melanoma): > 100 µM
- TGI (UACC-257 melanoma): > 100 µM
- TGI (ACHN renal): 50.9 µM
- TGI (M14 melanoma): > 100 µM
- TGI (HT29 colon): > 100 µM
- TGI (OVCAR-4 ovarian): > 100 µM
- TGI (786-0 renal): > 100 µM
- TGI (SR leukemia): > 100 µM
- TGI (SF-539 CNS): > 100 µM
- TGI (K-562 leukemia): > 100 µM
- TGI (SN12C renal): > 100 µM
- TGI (DMS 273 small cell lung): > 100 µM
- TGI (SF-295 CNS): > 100 µM
- TGI (NCI-H460 lung): > 100 µM
- TGI (DLD-1 colon): > 100 µM
